biological target: human PDE10A (Homo sapiens (Human), UniProt Q9Y233); test: human PDE10A full length Scintillation Proximity Assay (SPA); type: biochemical; details: PDE10A full length enzyme, 50 nM cGMP / [3H]-cGMP substrate, 20 minutes at room temperature
In short: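 Full-length human PDE10A with 50 nM cGMP plus 50 nM [3H]-cGMP in 20 mM HEPES pH 7.5, 10 mM MgCl2, 0.05 mg/ml BSA; 20 min at room temperature. Stopped with yttrium silicate SPA beads in zinc sulphate, scintillation counted; IC50 from concentration range.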

human PDE10A, sequence (Q9Y233 other isoform, or with tags, fused parts or gaps): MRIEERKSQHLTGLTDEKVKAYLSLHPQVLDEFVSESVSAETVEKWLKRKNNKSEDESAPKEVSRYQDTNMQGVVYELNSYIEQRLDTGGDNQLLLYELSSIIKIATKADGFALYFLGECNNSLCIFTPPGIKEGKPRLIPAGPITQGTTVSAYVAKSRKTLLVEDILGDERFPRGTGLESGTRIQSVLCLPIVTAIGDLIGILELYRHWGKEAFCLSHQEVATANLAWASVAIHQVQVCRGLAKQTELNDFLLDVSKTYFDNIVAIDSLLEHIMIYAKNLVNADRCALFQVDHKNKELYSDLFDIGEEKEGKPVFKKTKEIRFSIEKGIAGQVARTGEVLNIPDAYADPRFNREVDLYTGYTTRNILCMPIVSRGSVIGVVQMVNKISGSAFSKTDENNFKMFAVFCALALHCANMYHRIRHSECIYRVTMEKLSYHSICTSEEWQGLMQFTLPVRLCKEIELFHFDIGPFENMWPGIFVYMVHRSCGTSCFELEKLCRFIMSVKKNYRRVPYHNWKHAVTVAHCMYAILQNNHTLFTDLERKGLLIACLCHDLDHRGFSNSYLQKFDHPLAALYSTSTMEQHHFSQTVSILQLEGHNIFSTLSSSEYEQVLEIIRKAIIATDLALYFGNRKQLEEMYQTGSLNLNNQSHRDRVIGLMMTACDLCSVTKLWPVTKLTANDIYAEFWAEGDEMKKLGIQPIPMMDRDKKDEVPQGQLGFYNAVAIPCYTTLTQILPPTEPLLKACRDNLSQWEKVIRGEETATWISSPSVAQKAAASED

IC50 [nM] | SMILES
0.48 | Cc1c(Br)cc(C(F)(F)F)c2nc(CCc3nc(N4CCCC4)nn3C)nn12 [Example 82, 6-Bromo-5-methyl-2-[2-(2-methyl-5-pyrrolidin-1-yl-2H-[1,2,4]triazol-3-yl)-ethyl]-8-trifluoromethyl-[1,2,4]triazolo[1,5-c]pyridine]
131 | Cc1cnc(C)n2nc(CCc3nc(N4CCC[C@H]4C)nn3C)nc12 [Example 113, 5,8-Dimethyl-2-{2-[2-methyl-5-((R)-2-methyl-pyrrolidin-1-yl)-2H-[1,2,4]triazol-3-yl]-ethyl}-[1,2,4]triazolo[1,5-c]pyrimidine]
5 | COc1ccc(Cn2nc(N3CCCC3)nc2CCc2nc3c(C)ncc(C)n3n2)cc1 [Example 20, 2-{2-[2-(4-Methoxy-benzyl)-5-pyrrolidin-1-yl-2H-[1,2,4]triazol-3-yl]-ethyl}-5,8-dimethyl-[1,2,4]triazolo[1,5-a]pyrazine]
9 | Cc1cnc(C)n2nc(CCc3nc(N4CCC[C@@H]4C)nn3C)nc12 [Example 112, 5,8-Dimethyl-2-{2-[2-methyl-5-((S)-2-methyl-pyrrolidin-1-yl)-2H-[1,2,4]triazol-3-yl]-ethyl}-[1,2,4]triazolo[1,5-c]pyrimidine]
0.98 | Cc1c(Cl)ccc2nc(CCc3nc(N4CCCC4)nn3C)nn12 [Example 27, 6-Chloro-5-methyl-2-(2-(1-methyl-3-(pyrrolidin-1-yl)-1H-1,2,4-triazol-5-yl)ethyl)-[1,2,4]triazolo[1,5-a]pyridine]
5.17 | Cc1nc2ccc(Cl)cc2nc1C#Cc1nc(N2CCCC2)nn1C [Example 136, 6-Chloro-2-methyl-3-(2-methyl-5-pyrrolidin-1-yl-2H-[1,2,4]triazol-3-ylethynyl)-quinoxaline]
0.72 | Cc1c(Cl)cc(C(F)(F)F)c2nc(CCc3nc(N4CCCC4)nn3C3CC3)nn12 [Example 132, 6-Chloro-2-(2-(1-cyclopropyl-3-(pyrrolidin-1-yl)-1H-1,2,4-triazol-5-yl)ethyl)-5-methyl-8-(trifluoromethyl)-[1,2,4]triazolo[1,5-a]pyridine]
166 | Cc1ncc(C)n2nc(CCc3nc(N4CCC(F)(F)C4)nn3C)nc12 [Example 93, 2-{2-[5-(3,3-Difluoro-pyrrolidin-1-yl)-2-methyl-2H-[1,2,4]triazol-3-yl]-ethyl}-5,8-dimethyl-[1,2,4]triazolo[1,5-a]pyrazine]
91.5 | Cc1cc(C)n2nc(CCc3nc(N4CCC4)nn3C)nc2n1 [Example 21, 2-[2-(5-Azetidin-1-yl-2-methyl-2H-[1,2,4]triazol-3-yl)-ethyl]-5,7-dimethyl-[1,2,4]triazolo[1,5-a]pyrimidine]
317 | Cn1nc(N2CCCC2)nc1CCc1nc2cc(C#N)ccn2n1 [Example 67, 2-(2-(1-Methyl-3-(pyrrolidin-1-yl)-1H-1,2,4-triazol-5-yl)ethyl)-[1,2,4]triazolo[1,5-a]pyridine-7-carbonitrile]
9.78 | Cc1c(Cl)cc(C(F)(F)F)c2nc(CCc3nc(N4CCC(F)(F)C4)nn3C)nn12 [Example 88, 6-Chloro-2-{2-[5-(3,3-difluoro-pyrrolidin-1-yl)-2-methyl-2H-[1,2,4]triazol-3-yl]-ethyl}-5-methyl-8-trifluoromethyl-[1,2,4]triazolo[1,5-c]pyridine]
186 | CCN(c1nc(CCc2nc3c(C)ncc(C)n3n2)n(C)n1)C1CC1 [Example 60, Cyclopropyl-{5-[2-(5,8-dimethyl-[1,2,4]triazolo[1,5-a]pyrazin-2-yl)-ethyl]-1-methyl-1H-[1,2,4]triazol-3-yl}-ethyl-amine]
477 | COc1ccc(Cn2nc(C#Cc3nc4cc(Cl)ccn4n3)nc2N2CCCC2)cc1 [Example 19, 7-Chloro-2-[1-(4-methoxy-benzyl)-5-pyrrolidin-1-yl-1H-[1,2,4]triazol-3-ylethynyl]-[1,2,4]triazolo[1,5-a]pyridine]
0.88 | Cc1c(Cl)cc(C(F)(F)F)c2nc(C#Cc3nc(N4CCCC4)nn3C)nn12 [Example 91, 6-Chloro-5-methyl-2-(2-methyl-5-pyrrolidin-1-yl-2H-[1,2,4]triazol-3-ylethynyl)-8-trifluoromethyl-[1,2,4]triazolo[1,5-a]pyridine]
42.3 | Cc1ncc(C)n2nc(/C=C/c3nc(N(C)C4CC4)nn3C)nc12 [Example 11, Cyclopropyl-{5-[2-(5,8-dimethyl-[1,2,4]triazolo[1,5-a]pyrazin-2-yl)-vinyl]-1-methyl-1H-[1,2,4]triazol-3-yl}-methyl-amine]
8.94 | Cc1ncc(C)n2nc(CCc3nc(N4CC[C@@H](C)C4)nn3C)nc12 [Example 116, 5,8-Dimethyl-2-{2-[2-methyl-5-((R)-3-methyl-pyrrolidin-1-yl)-2H-[1,2,4]triazol-3-yl]-ethyl}-[1,2,4]triazolo[1,5-a]pyrazine]
0.44 | Cc1c(Cl)cc(C(F)(F)F)c2nc(CCc3nc(N4CCCC4)n(C)n3)nn12 [Example 105, 6-Chloro-5-methyl-2-[2-(1-methyl-5-pyrrolidin-1-yl-1H-[1,2,4]triazol-3-yl)-ethyl]-8-trifluoromethyl-[1,2,4]triazolo[1,5-c]pyridine]
28.5 | CCn1nc(CCc2nc3c(C)ncc(C)n3n2)nc1N1CCCC1 [Example 48, 2-(2-(1-Ethyl-5-(pyrrolidin-1-yl)-1H-1,2,4-triazol-3-yl)ethyl)-5,8-dimethyl-[1,2,4]triazolo[1,5-a]pyrazine]
84.3 | COC1CCN(c2nc(CCc3nc4c(C)ncc(C)n4n3)n(C)n2)C1 (stereo not shown) [Example 43, 2-{2-[5-(3-Methoxy-pyrrolidin-1-yl)-2-methyl-2H-[1,2,4]triazol-3-yl]-ethyl}-5,8-dimethyl-[1,2,4]triazolo[1,5-a]pyrazine]
0.22 | Cc1c(Cl)cc(Cl)c2nc(CCc3n[nH]c(N4CCCC4)n3)nn12 [Example 68, 6,8-Dichloro-5-methyl-2-[2-(5-pyrrolidin-1-yl-1H-[1,2,4]triazol-3-yl)-ethyl]-[1,2,4]triazolo[1,5-a]pyridine]
0.72 | COc1ccc(Cn2nc(N3CCCC3)nc2CCc2nc3c(Cl)cc(Cl)c(C)n3n2)cc1 [Example 61]
0.35 | Cc1c(Cl)cc(C(F)(F)F)c2nc(CCc3nc(N4CCCC4)nn3C3CCOCC3)nn12 [Example 122, 6-Chloro-5-methyl-2-(2-(3-(pyrrolidin-1-yl)-1-(tetrahydro-2H-pyran-4-yl)-1H-1,2,4-triazol-5-yl)ethyl)-8-(trifluoromethyl)-[1,2,4]triazolo[1,5-a]pyridine]
28.4 | Cc1ncc(C)n2nc(CCc3nc(N4CCCC4C)nn3C)nc12 (stereo not shown) [Example 51, 5,8-Dimethyl-2-{2-[2-methyl-5-(2-methyl-pyrrolidin-1-yl)-2H-[1,2,4]triazol-3-yl]-ethyl}-[1,2,4]triazolo[1,5-a]pyrazine]
0.63 | Cc1c(Cl)cc(Cl)c2nc(CCc3nc(N4CCCC4)nn3C)nn12 [Example 52, 6,8-Dichloro-5-methyl-2-[2-(2-methyl-5-pyrrolidin-1-yl-2H-[1,2,4]triazol-3-yl)-ethyl]-[1,2,4]triazolo[1,5-a]pyridine]
79.3 | Cc1ncc(C)n2nc(/C=C/c3nc(N(C)CC4CC4)nn3C)nc12 [Example 97, Cyclopropylmethyl-{5-[(E)-2-(5,8-dimethyl-[1,2,4]triazolo[1,5-a]pyrazin-2-yl)-vinyl]-1-methyl-1H-[1,2,4]triazol-3-yl}-methyl-amine]
